The values that follow come from ChEMBL document CHEMBL1141123, “Hydroxyethylene sulfones as a new scaffold to address aspartic proteases: design, synthesis, and structural characterization” (J Med Chem, 2005).

As a reminder, the Ki is a measure of affinity in units of concentration, obtained from inhibition or displacement. High values mean a looser hold on the target, low ones a stronger hold on the target. A word on the IC50: it is the concentration needed to halve the response being measured. Low readings indicate inhibition by little substance, high ones a need for much substance.

SMILES strings stand for the structures. Several values for one entry are separate records, joined by “and”; a condition that tells them apart may be missing. Equal entries are not always repeated.

The target in assay [1] is T1, Human immunodeficiency virus type 1 protease (Human immunodeficiency virus 1, UniProt Q72874). Briefly: Binding affinity for HIV-1 protease expressed in Escherichia coli upon incubation in pH 5.5 buffer containing Abz-Thr-Ile-p-nitrophenylalanine-Phe-Gln-Arg-NH2.
Assay [2] addresses T1, Human immunodeficiency virus type 1 protease. Briefly: Inhibitory concentration against HIV-1 protease expressed in Escherichia coli upon incubation in pH 5.5 buffer containing Abz-Thr-Ile-p-nitrophenylalanine-Phe-Gln-Arg-NH2.
The target in a further assay is Cathepsin D (Homo sapiens, UniProt P07339). Briefly: Binding affinity af the compound towards cathepsin D.

In assay [1], `Cc1cccc(C)c1OCC(=O)N[C@@H](Cc1cccc(Br)c1)[C@H](O)C[C@H](CC(C)C)S(=O)(=O)c1ccc(N(C)C)cc1` displayed a Ki of 0.54 µM. The same compound gave an IC50 in assay [2] of 0.79 µM.
For the compound `O=C(N[C@@H](Cc1cccc(Br)c1)[C@H](O)C[C@H](CCc1ccc(Cl)cc1Cl)S(=O)(=O)c1ccc(F)cc1)[C@H]1CCCO1`, the Ki in assay [1] was 3.9 µM and 2.9 µM.
In assay [1], `Cc1cccc(C)c1OCC(=O)N[C@H](Cc1cccc(Br)c1)[C@@H](O)C[C@@H](CC(C)C)S(=O)(=O)c1ccc(F)cc1` registered a Ki of 1.4 µM. In assay [2], this compound came in with an IC50 of 2 µM.
The like results for `CC(C)CCS(=O)(=O)[C@@H](C)C[C@@H](O)[C@H](Cc1cccc(Br)c1)NC(=O)CCS(C)(=O)=O` were, in that order, over 40 µM and over 40 µM.
`COc1cc(Br)c(C(=O)N[C@@H](Cc2cccc(Oc3ccccc3)c2)[C@@H](O)CN(CCc2ccc(Cl)cc2Cl)C(=O)CCN2C(=O)c3ccccc3C2=O)cc1OC` displayed a Ki at Cathepsin D of 70 pM.
In assay [1], `O=C(N[C@H](Cc1cccc(Br)c1)[C@@H](O)C[C@@H](CCc1ccc(Cl)cc1Cl)S(=O)(=O)c1ccc(F)cc1)[C@H]1CCCO1` registered a Ki of over 40 µM. Moreover, the IC50 in assay [2] was over 40 µM.
The compound `O=C(COc1ccc(Cl)cc1Cl)N[C@@H](Cc1cccc(Br)c1)[C@H](O)C[C@H](CCc1ccc(Cl)cc1Cl)S(=O)(=O)c1ccc(F)cc1` displayed a Ki in assay [1] of 7 µM. Besides, the concentration for half-maximal inhibition (IC50) in assay [2] was found to be 10 µM.
The like results for `CNc1ccc(S(=O)(=O)[C@@H](CC(C)C)C[C@@H](O)[C@H](Cc2cccc(Br)c2)NC(=O)COc2c(C)cccc2C)cc1` were, in that order, 0.37 µM and 0.53 µM.
In the case of `Cc1cccc(C)c1OCC(=O)N[C@@H](Cc1cccc(Br)c1)[C@H](O)C[C@H](CC(C)C)S(=O)(=O)c1ccc(F)cc1`, in assay [1], the Ki was 0.08 µM and 0.045 µM. For the same compound, in assay [2], the IC50 was 0.14 µM and 0.085 µM.
Take `CC(C)CN(C[C@@H](O)[C@H](Cc1ccccc1)NC(=O)O[C@H]1CCOC1)S(=O)(=O)c1ccc(N)cc1` [AMPRENAVIR]: in assay [1], the affinity corresponds to a Ki of 6e-05 µM.
For `COc1cc(Br)c(C(=O)N[C@@H](Cc2cccc(Br)c2)[C@H](O)C[C@H](CCc2ccc(Cl)cc2Cl)S(=O)(=O)c2ccc(F)cc2)cc1OC`, the affinity in assay [1] corresponds to a Ki of 3.1 µM. Also, in assay [2], the IC50 was determined as 4.5 µM.
